Laboratory results taken from patent US6204293A, “Inhibitors of protein isoprenyl transferases” (University of Pittsburgh, priority 1998, dated 2001).
Where a name gives a salt, the structure may show the parent alone.

What follows are compounds tested against T1, Rat brain protein farnesyltransferase (Rattus norvegicus, UniProt Q02293+Q04631) (assay: % inhibition of farnesylation, scintillation proximity assay with biotin-K Ras B fragment). Conditions: Table 4; 1 × 10^-8 M.
T1 construct: Rat brain protein farnesyltransferase activity is measured; from tissue; host or cells: rat brain
Assay type: biochemical
In short: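 Scintillation proximity read-out of farnesylation, using a biotinylated K Ras B fragment (0.1 mM final) in place of biotin-lamin. Enzyme purified from rat brain; results given as % inhibition.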

T1 sequence (Q02293 whole entry, the tested form may be a part, one chain of several): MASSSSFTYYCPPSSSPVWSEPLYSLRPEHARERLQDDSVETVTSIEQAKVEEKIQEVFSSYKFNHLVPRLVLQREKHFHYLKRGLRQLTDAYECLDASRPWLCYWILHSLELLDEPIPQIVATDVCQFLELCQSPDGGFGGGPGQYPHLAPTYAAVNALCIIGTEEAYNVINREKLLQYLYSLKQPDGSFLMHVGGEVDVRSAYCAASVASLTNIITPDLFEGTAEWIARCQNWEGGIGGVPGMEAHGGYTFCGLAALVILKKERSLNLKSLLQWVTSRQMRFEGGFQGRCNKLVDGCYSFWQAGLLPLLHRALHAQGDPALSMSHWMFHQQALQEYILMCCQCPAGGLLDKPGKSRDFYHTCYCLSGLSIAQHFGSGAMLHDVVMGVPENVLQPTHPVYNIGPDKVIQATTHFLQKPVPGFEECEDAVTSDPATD

| % inhibition at 1 × 10^-8 M | Compound |
| --- | --- |
| 80% | CCCCS(=O)(=O)N(Cc1ccc(C(=O)N[C@@H](CCSC)C(=O)O)c(-c2ccccc2C)c1)CC1CCCCC1 [Example 996] |

Same assay, conditions: Table 6; ** footnote 0.01 μM (title: 0.01 mM)

| Compound | % inhibition at 0.01 μM (**) |
| --- | --- |
| CSCC[C@H](NC(=O)c1ccc(CN(CCF)CCC2CCCCC2)cc1-c1ccccc1C)C(=O)O [Example 1094] | 96% |

Same assay, conditions: read-out: % inhibition at 0.01 μM (**); Table 6; ** footnote 0.01 μM (title: 0.01 mM)

| inhibition at 0.01 µM | Compound |
| --- | --- |
| 79% | COc1ccc(COC[C@H](CC2CCCCC2)OCc2ccc(C(=O)N[C@@H](CCSC)C(=O)O)c(-c3ccccc3C)c2)cc1 [Example 1051, N-[4-(3-cyclohexyl-1-(4-methoxybenzyloxy)prop-2-yloxymethyl)-2-(2-methylphenylbenzoyl]methionine, lithium salt] |
| 91% | CSCC[C@H](NC(=O)c1ccc(CO[C@@H](CC2CCCCC2)C(=O)N2CCCCC2)cc1-c1ccccc1C)C(=O)O [Example 1052, N-[4-(3-cyclohexyl-N-piperidin-1-ylpropion-2-yloxymethyl)-2-(2-methylphenyl)benzoyl]methionine, lithium salt] |
| 60% | CSCC[C@H](NC(=O)c1ccc(CO[C@@H](CC2CCCCC2)C(=O)N2CCOCC2)cc1-c1ccccc1C)C(=O)O [Example 1053, N-[4-(3-cyclohexyl-N-morpholin-4-ylpropion-2-yloxymethyl)-2-(2-methylphenyl)benzoyl]methionine, lithium salt] |
| 89% | CSCC[C@H](NC(=O)c1ccc(CO[C@@H](CC2CCCCC2)C(=O)N2CCSCC2)cc1-c1ccccc1C)C(=O)O [Example 1054, N-[4-(3-cyclohexyl-N-thiomorpholin-4-ylpropion-2-yloxymethyl)-2-(2-methylphenyl)benzoyl]methionine, lithium salt] |
| 85% | CSCC[C@H](NC(=O)c1ccc(CO[C@@H](CC2CCCCC2)C(=O)N2CC[S+]([O-])CC2)cc1-c1ccccc1C)C(=O)O [Example 1055, N-[4-(3-cyclohexyl-N-thiomorpholin-S-oxide-4-ylpropion-2-yloxymethyl)-2-(2-methylphenyl)benzoyl]methionine, lithium salt] |
| 81% | CSCC[C@H](NC(=O)c1ccc(COCc2ccc(C3CCCCC3)o2)cc1-c1ccccc1C)C(=O)O [Example 1090, [4-(2-(5-cyclohexylfuranyl)methoxymethyl)-2-(2-methylphenyl)-benzoyl]methionine, lithium salt] |

More lines, now with the values behind:

| Compound | inhibition at 0.01 µM |
| --- | --- |
| CSCC[C@H](NC(=O)c1ccc(CO[C@H](CO)CC2CCCCC2)cc1-c1ccccc1C)C(=O)O [Example 1049, N-[4-(3-cyclohexyl-1-hydroxyprop-2-yloxymethyl)-2-(2-methylphenyl)benzoyl]methionine, lithium salt] | 93% |
| COCCOCOC[C@H](CC1CCCCC1)OCc1ccc(C(=O)N[C@@H](CCSC)C(=O)O)c(-c2ccccc2C)c1 [Example 1050, N-[4-(3-cyclohexyl-1-(2-methoxyethoxymethyleneoxy)prop-2-yloxymethyl)-2-(2-methylphenyl)benzoyl]methionine, lithium salt] | 62% |

Same assay, conditions: read-out: % inhibition at 0.1 μM (*); Table 6; * footnote 0.1 μM (title: 0.1 mM)

| inhibition at 0.1 µM | Compound |
| --- | --- |
| 90% | CSCC[C@H](NC(=O)c1ccc(COCc2ccccc2CO)cc1-c1ccccc1C)C(=O)O [Example 1043, N-[4-(2-hydroxymethylbenzyloxymethyl)-2-(2-methylphenyl)benzoyl]methionine,lithium salt] |
| 76% | CSCC[C@H](NC(=O)c1ccc(COCc2cccc(CO)c2)cc1-c1ccccc1C)C(=O)O [Example 1044, N-[4-(3-hydroxymethylbenzyloxymethyl)-2-(2-methylphenyl)benzoyl]methionine,lithium salt] |
| 86% | CSCC[C@H](NC(=O)c1ccc(COCc2ccc(CO)cc2)cc1-c1ccccc1C)C(=O)O [Example 1045, N-[4-(4-hydroxymethylbenzyloxymethyl)-2-(2-methylphenyl)benzoyl]methionine,lithium salt] |
| 76% | CCCCC(OCc1ccc(C(=O)N[C@@H](CCSC)C(=O)O)c(-c2ccccc2C)c1)c1scnc1C (some centres unmarked) [Example 1095, N-[4-(1-(4-methylthiazol-5-yl)pentyloxy)methyl)-2-(2-methylphenyl)benzoyl]methionine lithium salt] |
